From patent US9968631B2, “Method for treatment of pulmonary fibrosis” (Galectin Therapeutics, Inc., priority 2013, dated 2018) come the findings set out here.

“Also recorded” adds a separate entry of the source.

Experiment [1] concerns bleomycin-induced pulmonary fibrosis in C57Bl/6 mice. As to the kind of experiment: Late treatment of pulmonary fibrosis induced by bleomycin in C57Bl/6 mice. In kind it is in vivo, mouse. The following applies: for lung pathology with trichrome stain (fibrosis): FIG. 14; for lung pathology with H & E (fibrosis): FIG. 15; for overall antifibrotic treatment effect: GM-CT-01 120 mg/kg, GR-MD-02 60 mg/kg IV days 10, 13, 16, 20; for Modified Ashcroft Index score vs vehicle: change did not reach significance, FIG. 11; for general fibrosis score vs vehicle: differences did not reach statistical significance, FIG. 12; for Inflammation score vs vehicle: differences not statistically significant, FIG. 13; for percent of fibrotic lung (percent of lung affected): not statistically significant. The method, then: In these experiments, treatment was initiated after the time when the inflammatory reaction is known to have subsided and the process is one of primarily fibrogenesis. Pulmonary fibrosis was induced in animals using bleomycin at 2.25 U/kg at day 0 as described above. Animals were treated using a GM compound intravenously (GM-CT-01) or GA-RG compound intravenously (GR-MD-02) as described in Table 2.
Animals were euthanized on Day 21 and the lungs were weighed. Data shown in FIG. 9 represent group means and standard error of the means.
The total lung hydroxyproline content was measured. Data shown in FIG. 10 represent group mean and expressed as microgram of hydroxyproline per mg of lung tissue.

For experiment [2] the test system is unchanged. As to the kind of experiment: Early treatment of pulmonary fibrosis induced by bleomycin in C57Bl/6 mice. The format is in vivo, mouse. The following applies: for lung weight vs vehicle-treated mice / total lung hydroxyproline content vs vehicle-treated mice: Day 21, GM-CT-01 120 mg/kg; for lung weight vs vehicle-treated mice: GR-MD-02 60 mg/kg IV days -1, 2, 6, 9, 13, 16, 20, FIG. 2; for total lung hydroxyproline content vs vehicle-treated mice / Modified Ashcroft Index score, difference vs vehicle, p (unpaired t-test): GR-MD-02 60 mg/kg IV; for lung pathology with trichrome stain (fibrosis): FIG. 7; for Modified Ashcroft Index Score compared to the vehicle group: histologic analysis; for general fibrosis score, difference vs vehicle, p (unpaired t-test) / Inflammation score, difference vs vehicle, p (unpaired t-test) / Modified Ashcroft Index score, difference vs vehicle, p (unpaired t-test): outliers removed; for general fibrosis score, difference vs vehicle, p (unpaired t-test): FIG. 5; for Inflammation score, difference vs vehicle, p (unpaired t-test): FIG. 6; for Modified Ashcroft Index score, difference vs vehicle, p (unpaired t-test): GM-CT-01 120 mg/kg, FIG. 4. The method, then:
Instillation of bleomycin in the trachea induces changes similar to diffuse pulmonary fibrosis and/or fibrosing alveolitis in humans. There is an increase in deposition and net synthesis of collagen in the lung with this model.
This model can be used to evaluate therapy started in the inflammatory phase of the belomycin insult (started<7 day after bleomycin) or after the inflammatory phase and during fibrogenesis (started>7 day after bleomycin). In this example, early therapy was evaluated.
The GM (GM-CT-01) and GA-RG (GR-MD-02) compounds were evaluated as preventative therapy in this mouse model.
Pulmonary fibrosis was induced in animals using intra-tracheal instillation of bleomycin at 2.25 U/kg. Animals were treated using a GM compound (GM-CT-01) or GA-RG compound (GR-MD-02) delivered by intravenous infusion as described in Table 1.
Animals were euthanized on Day 21 and the lungs were weighed. Data shown in FIG. 2 represent group means and SEM. Statistical comparison among all groups was performed using one-way ANOVA with Newman-Keuls multiple comparison test.
After euthanasia, the total lung hydroxyproline content was measured. Data shown in FIG. 3 represent group mean and SEM and expressed as microgram of hydroxyproline per mg of lung tissue. Statistical comparison to the “vehicle+Bleomycin” group was performed using one-way ANOVA with Holm-Sidak's multiple comparison test.

Setting [3] is: comparison in the experience of the laboratory.

On to 1,4-β-D-Galactomannan [GM-CT-01], for which, in experiment [1] (Day 21, GM-CT-01 120 mg/kg IV days 10, 13, 16, 20, compared with GR-MD-02, FIG. 10), the “total lung hydroxyproline content (in words)” value is listed as “less of a decrease”. In addition, in experiment [1], the “lung pathology with trichrome stain (fibrosis)” value was “less effect”, the “lung pathology with H & E (fibrosis)” value is recorded as “some reduction in the fibrosis”, the “overall antifibrotic treatment effect” value was “effective at reducing pulmonary fibrosis; also recorded: more modest positive treatment effect” and the “Modified Ashcroft Index score vs vehicle” value is recorded as “little change”. Further, in experiment [1], the “general fibrosis score vs vehicle” value is recorded as “reduction in the fibrosis score”, the “Inflammation score vs vehicle” value is listed as “no change” and the “percent of fibrotic lung (percent of lung affected)” value is listed as “notably reduced”. In addition, in experiment [2], the “lung weight vs vehicle-treated mice” value was “significantly reduce lung weight; also recorded: significant reduction in mean lung weight; also recorded: markedly reduce lung weight”; the “lung pathology with trichrome stain (fibrosis)” value is listed as “effective at reducing fibrosis”; the “Modified Ashcroft Index Score compared to the vehicle group” value is “significant reduction”; the “general fibrosis score, difference vs vehicle, p (unpaired t-test)” value is recorded as 0.0979. In experiment [2], the “Inflammation score, difference vs vehicle, p (unpaired t-test)” value was 0.0544 and the “Modified Ashcroft Index score, difference vs vehicle, p (unpaired t-test)” value was 0.0199. Moreover, the “total lung hydroxyproline content vs vehicle-treated mice” value in experiment [2] (FIG. 3) is on record as “reduce lung hydroxyproline content; also recorded: significant reduction; also recorded: markedly reduce”. Further, in experiment [2] (setting [3]), the “results compared to pirfenadone” value is listed as “superior to the results using pirfenadone” and the “results compared to treatment with anti-TGFbeta” value is recorded as “superior to treatment with anti-TGFbeta”.
As to “galactoarabino-rhamnogalacturonate [GR-MD-02]”, the “lung weight vs control animals” value in experiment [1] (Day 21, GR-MD-02 60 mg/kg IV days 10, 13, 16, 20, FIG. 9) is “decreased lung weight of the GR-MD-02 treated group as compared to control animals, this difference did not reach statistical significance”. In addition, the “reduction of the increase in hydroxyproline” value in experiment [1] (Day 21, GR-MD-02 60 mg/kg IV days 10, 13, 16, 20, did not reach significance, FIG. 10) was 50%. Further, in experiment [1], the “lung pathology with trichrome stain (fibrosis)” value was “effective at reducing fibrosis”, the “lung pathology with H & E (fibrosis)” value was “marked decrease in fibrous tissue”, the “overall antifibrotic treatment effect” value is “effective at reducing pulmonary fibrosis; also recorded: strongest anifibrotic effect; also recorded: more effective than GM-CT-01” and the “Modified Ashcroft Index score vs vehicle” value is recorded as “reduction in the Aschroft score”. Further, in experiment [1], the “general fibrosis score vs vehicle” value is “reduction in the fibrosis score”, the “Inflammation score vs vehicle” value is “reduction in inflammation score” and the “percent of fibrotic lung (percent of lung affected)” value was “tended to have reduced percent of fibrotic lung”. Also, in experiment [2], the “lung weight vs vehicle-treated mice” value is listed as “significantly reduce lung weight; also recorded: significant reduction in mean lung weight; also recorded: markedly reduce lung weight”; the “lung pathology with trichrome stain (fibrosis)” value is listed as “effective at reducing fibrosis”; the “Modified Ashcroft Index Score compared to the vehicle group” value is reported as “significant reduction”; the “general fibrosis score, difference vs vehicle, p (unpaired t-test)” value amounted to 0.0206. Moreover, in experiment [2], the “Inflammation score, difference vs vehicle, p (unpaired t-test)” value was found to be 0.0508 and the “Modified Ashcroft Index score, difference vs vehicle, p (unpaired t-test)” value stood at 0.0112. In experiment [2] (FIG. 3), the “total lung hydroxyproline content vs vehicle-treated mice” value is given as “significant reduction; also recorded: markedly reduce”. Besides, the “total lung hydroxyproline content vs vehicle-treated mice” value in experiment [2] (FIG. 3, listed as GA-MD-02) is reported as “reduce lung hydroxyproline content”. Moreover, the “results compared to pirfenadone” value in experiment [2] (setting [3]) was “superior to the results using pirfenadone”.
